Data on one compound can be found in patent US4092420A, “Novel soft N-chloroamino alcohol derivatives exhibiting antibacterial activity” (INTERx Research Corporation, priority 1977, dated 1978).

One test deals with S. pyogenes. Description: Minimal inhibitory concentration (MIC), Example V. The class given is cell-based. To be noted: Streptococcus pyogenes.
A further test relates to A. niger. In words: Minimal inhibitory concentration (MIC), Example V. It is filed as cell-based. The note with it: Aspergillus niger. The source says:
(§1) MINIMAL INHIBITORY CONCENTRATION OF 2-AMINO-2-METHYL-1-PROPYL
(§2) ^a Minimal inhibitory concentration expressed in parts per million
(§3) sequence inhibited the test organism at the higher concentrations.
(§4) THE ANTIBACTERIAL SCREEN - EXAMPLE V

In test [1] the test system is E. coli. In words: Minimal inhibitory concentration (MIC), Example V. It is filed as cell-based. To be noted: Escherichia coli.
Description: as §1, §2, §3, §4

For another test, the system named is T. mentagrophytes. In words: Minimal inhibitory concentration (MIC), Example V. It is filed as cell-based. To be noted: Trichophyton mentagrophytes.
Description: as §1, §2, §3, §4

The next test deals with C. albicans. Description: Minimal inhibitory concentration (MIC), Example V. The note with it: Candida albicans. It is filed as cell-based.
Description: MINIMAL INHIBITORY CONCENTRATION OF 2-AMINO-2-METHYL-1-PROPYL […]
as §4

The test system of the next test is S. aureus. Description: Contact germicidal efficiency (sterilization time). To be noted: Example Y, pH 4.6, in presence of horse serum, 468 ppm (80 PPMCl+). It is filed as cell-based, Staphylococcus aureus. The procedure: (§5) CONTACT GERMICIDAL EFFICIENCY OF
(§6) ^a Time intervals screened 0.5, 1, 2, 3, 4 and 5 minutes.
(§7) ^a Time intervals screened 0.5, 1, 2, 3, 4, 5, 6, 7, 8, 9 and 10
(§8) ^a Time intervals screened 0.5, 1, 2, 3, 4, and 5 minutes.
(§9) ^b Time intervals screened 0.5, 1, 2, 3, 4, 5, 6, 7, 8, 9 and 10
(§10) Immediately preceding the screen, the compound is weighed and diluted with a buffer or other solvent to give the final concentration desired. The buffer or solvent chosen depends on the conditions of the screen and could be one of the following: 0.1 M NaOAc, pH 4.6; 0.1 M NaH2 PO4, pH 7.0; 0.1 M Na2 B4 O7, pH 8.8; 35% methanol in one of the aforementioned buffers; 10% Triton × 100 in buffer, etc.
(§11) The positive chlorine concentration of the test solution is then determined iodometrically.
(§12) Media used for the Screen are Nutrient Broth, BBL# 11479 and Nutrient Agar, BBL# 11472 prepared according to label directions. The broth is dispensed in 75 ml amounts of flasks for overnight cultures and in 5 ml amounts to culture tubes for subculturing during the Screen. Agar plates are prepared as usual. […]
(§13) A 0.2 ml portion of the overnight culture is inoculated into 5 ml of 0.9% NaCl for use in controls. […] The earliest subculture time at which no growth is present in the subculture tube is considered the endpoint and is recorded as that time, e.g., 7 minutes. […]

The test system of test [2] is E. coli. In words: Contact germicidal efficiency (sterilization time). To be noted: Example Y, pH 4.6, in presence of horse serum, 468 ppm (80 PPMCl+). The class given is cell-based, Escherichia coli. The procedure:
as §5, §6, §7, §8, §9, §10, §11, §12, §13

Another test concerns S. epidermidis. In words: Contact germicidal efficiency (sterilization time). The class given is cell-based, Staphylococcus epidermidis. To be noted: S. epidermidis. The procedure: (§14) CONTACT GERMICIDAL EFFICIENCY OF N-CHLORAMINES AS A FUNCTION
as §6, §7, §8, §9, §10, §11
(§15) Media used for the Screen are Nutrient Broth, BBL# 11479 and Nutrient Agar, BBL# 11472 prepared according to label directions. The broth is dispensed in 75 ml amounts of flasks for overnight cultures and in 5 ml amounts to culture tubes for subculturing during the Screen. Agar plates are prepared as usual.
(§16) Overnight cultures are prepared by inoculating from stock cultures into the 75 ml flasks of nutrient broth and incubating for 15 hours at 37° C.
(§17) The iodometrically characterized test solution is dispensed in 5 ml amounts to seven small stoppered flasks. The organisms are screened one at a time as follows:
(§18) A 0.2 ml portion of the overnight culture is inoculated into 5 ml of 0.9% NaCl for use in controls. A 0.2 ml portion of the overnight culture is inoculated into a flask containing 5 ml of the test solution, an automatic timer is simultaneously triggered and the solution mixed. At time intervals of 30 seconds, 1, 2, 3, 4, 5, 6, 7, 8, 9, and 10 minutes a loopful of the inoculated solution is subcultured into 5 ml of sterile nutrient broth and mixed by a Vortex Genie Mixer, the high dilution serving to stop the action of the compound. At the end of the ten minute screen, the entire procedure is repeated for each of the remaining six organisms. All of the subculture tubes are incubated at 37° C and checked for signs of growth by turbidity at 24 hr., 48 hr., 3, 5, and 7 days. The earliest subculture time at which no growth is present in the subculture tube is considered the endpoint and is recorded as that time, e.g., 7 minutes.
(§19) The test solution is prepared and characterized as above but is made up at twice the concentration desired. The solution is diluted 1:1 with Rehydrated Tissue Culture Dessicated Horse Serum, Difco #5357-72 and dispensed in a 5 ml amount to a small flask. The mixture is incubated at Room Temperature for 30 minutes to allow denaturation of the compound by the serum and then screened as above.
(§20) The 5 ml mixture of serum and test solution are prepared in sequence to allow as close to 30 minutes as possible before the beginning of the screen of each organism.
(§21) Bacteria: Staphylococcus aureas Smith (or 209), Escherichia coli AB 1932-1, 1100/B22 and Vogel, Streptococcus pyogenes C203 Salmonella typhimurium 14028, Bacillus subtilis 6051-1, Klebsiella pneumoniae 10031, Pseudomonas aeruginosa 9027, Bordetella bronchiseptica 4617 and Staphylococcus epidermidis 12228.

A further test relates to K. pneumoniae. In words: Contact germicidal efficiency (sterilization time). The class given is cell-based, Klebsiella pneumoniae. The procedure: as §14, §6, §7, §8, §9, §10, §11, §15, §16, §17, §18, §19, §20, §21
The mark [3] stands for this setting: Example X, pH 4.6, no horse serum, IV c 404 ppm (69 PPMCl+), IV g 489 ppm (143 PPMCl+).
[4] abbreviates: Example X, pH 7.0, no horse serum, IV c 1886 ppm (323 PPMCl+), IV g 409 ppm (120 PPMCl+).
Setting [5] is: Example X, pH 9.3, no horse serum, IV c 1704 ppm (292 PPMCl+), IV g 319 ppm (94 PPMCl+).
Setting [6] is: Example Y, pH 4.6, in presence of horse serum, 468 ppm (80 PPMCl+).

SMILES strings stand for the structures.

For the compound `CC(C)(COC(=O)C(C)(C)C)NCl` [IV c, 2-N-Chloroamino-2-methyl-1-propyl 2,2-dimethylproprionate], the MIC (in general, the lowest concentration that inhibits growth of the organism) with S. pyogenes is more than 125 µg/mL; against A. niger, more than 250 µg/mL; with E. coli [1], more than 250 µg/mL; in the test on T. mentagrophytes, more than 250 µg/mL; with C. albicans, more than 250 µg/mL. Further, the “Sterilization Time” value with S. aureus was more than 10 min; in the test with E. coli [2], more than 10 min; in the test on S. epidermidis (setting [3]) it was 0.5 min; in the test on S. epidermidis (setting [4]) it was 3 min; in the test with S. epidermidis (setting [5]), 4 min; in the test on S. epidermidis (setting [6]) it was more than 10 min. For the same compound, the “Sterilization Time” value was 0.5 min in the test on K. pneumoniae (setting [3]), 2 min with K. pneumoniae (setting [4]), 2 min in the test with K. pneumoniae (setting [5]) and more than 10 min with K. pneumoniae (setting [6]).
